Source: patent US6482806B1, “Product of heat treatment of uronic acid, food, drink, or drug including the product” (Takara Shuzo Co., Ltd., priority 1996, dated 2002)
*1 amine or outer side, *2 acyl side, *3 side chain or, on linkers, in order; H or OH if unused. Where a SMILES comes first, the peptide text is derived from it. Bridges are numbered along the chain shown (N, C = ends). Roman numbers before positions name the chains, in order. [ ]: non-standard residue; d: D form. Actinocin(9to1) = Cc1c2oc3c(C)ccc(C(=O)[*:1])c3nc-2c(C(=O)[*:2])c(N)c1=O; NMeV = CN[C@H](C(=O)O)C(C)C; Sar = CNCC(=O)O

Columns and labels:
[1] = test system: Human promyelocytic leukemia cells HL-60 (ATCC CRL-1964); assay: Apoptosis induction in HL-60 cells, optical microscope (Example 1); assay type: cell-based; details: 0.1 ml of aqueous solution (0.1 mg/ml) added, 16 hours
Experimental: Human promyelocytic leukemia cells HL-60 (ATCC CRL-1964) were incubated in an RPMI 1640 medium (manufactured by Nissui) containing 10% of fetal calf serum (manufactured by Gibco) treated at 56° C. for 30 minutes and then suspended in an ASF 104 medium (manufactured by Ajinomoto) to make the cell concentration 5×10^5cells/9 ml.
To this suspension was added 1 ml of the heat-treated pectin solution and the mixture was incubated at 37° C. for 16 hours in the presence of 5% of carbon dioxide. For the sake of confirmation, the same incubation as above was conducted except that 0.1 ml of aqueous solution (0.1 mg/ml) of actinomycin D (manufactured by Sigma) which was known as an apoptosis-inducing reagent and 0.9 ml of a physiological saline solution were used instead of the above-mentioned pectin solution.
Incidentally, in the control where the cells to which 1 ml of physiological saline solution was added were incubated, such phenomena were not observed.

[2] = test system: human promyelocytic leukemia cells (HL-60) (ATCC CCL-240); assay: Apoptosis-inducing activity to HL-60 cells, microscope and trypan blue count (method of Example 7); assay type: cell-based; details: 0.05 ml of aqueous solution (0.1 mg/ml) added, 16 hours
Experimental: Thus, HL-60 (ATCC CCL-240) were incubated in an RPMI 1640 medium (manufactured by Nissui) containing 10% of fetal calf serum (manufactured by Gibco) treated at 56° C. for 30 minutes and then suspended in an RPMI 1640 medium to make the cell concentration 2.5×10^5 cells/4.5 ml.
To 4.5 ml of this suspension was added 0.5 ml of the above-mentioned heat-treated pectin solution and the mixture was incubated at 37° C. for 16 hours in the presence of 5% of carbon dioxide. For the sake of confirmation, the same incubation as above was conducted except that 0.05 ml of an aqueous solution (0.1 mg/ml) of actinomycin D (manufactured by Sigma) which was known as an apoptosis-inducing reagent and 0.45 ml of a physiological saline solution were used instead of the above-mentioned heat-treated pectin solution.
Incidentally, in the control where the cells to which 0.5 ml of a physiological saline solution was added were incubated, such phenomena were not observed.
Further, to the cell suspension was added twice as much by volume of a 0.4% aqueous solution of trypan blue and an observation was conducted under an optical microscope whereby trypan blue was excreted and colorless cells and blue-colored cells were counted as viable and dead cells, respectively.

Cc1c2oc3c(C)ccc(C(=O)N[C@@H]4C(=O)N[C@H](C(C)C)C(=O)N5CCC[C@H]5C(=O)N(C)CC(=O)N(C)[C@@H](C(C)C)C(=O)O[C@@H]4C)c3nc-2c(C(=O)N[C@@H]2C(=O)N[C@H](C(C)C)C(=O)N3CCC[C@H]3C(=O)N(C)CC(=O)N(C)[C@@H](C(C)C)C(=O)O[C@@H]2C)c(N)c1=O [actinomycin D] (I: T[dV]P[Sar][NMeV] / II: T[dV]P[Sar][NMeV]; ester I:1-I:C, II:1-II:C; linker I:N-II:N via Actinocin(9to1))
condensation of nuclei, contraction of cells and production of apoptotic body [1]: condensation of nuclei, contraction of cells and production of apoptotic body were confirmed | condensation of nuclei, contraction of cells and production of apoptotic body [2]: condensation of nuclei, contraction of cells and production of apoptotic body were confirmed
